One test has as its system serotonin ulcer. The experiment in a line: Inhibitory activity on serotonin ulcer. In kind it is in vivo, SD-strain male rats. The conditions noted are these: 30 min before serotonin 20 mg/kg s.c., rats. The protocol:
Seven week-old SD-strain male rats (body weight 200 to 220 g) were fasted for 24 hours but water was provided freely, and then used in the following experiment. Each of the test compounds suspended in 0.5% CMC was administered to the rats either orally or intraperitoneally, and 30 minutes later, serotonin (serotonin creatinine sulfate) was subcutaneously administered to the rats in a dose of 20 mg/kg. Four hours later, the animals were sacrificed. The abdomen was cut open, and the stomach was taken out from each animal. 12 ml of 1% formalin was injected into the stomach to inflate it, and the stomach was further dipped for about 10 minutes in 1% formalin for fixation. Then, the stomach was cut open on the side of the lesser curvature, and spread on a glass plate. The area of ulcers generated in the glandular stomach was measured by using a solid microscope. The sum of the area of ulcer for each animal was used as the ulcer index. The ulcer inhibiting ratio of the test compound was calculated in accordance with the following equation. [formula] The control group was given 0.5% CMC and serotonin alone.

The subject of a further test is indomethacin ulcer. The experiment in a line: Inhibitory activity on indomethacin ulcer. Format: in vivo, SD-strain male rats. As to conditions: 30 min before indomethacin 20 mg/kg oral, rats. The protocol: Seven week-old SD-strain male rats (body weight 200 to 220 g) were fasted for 24 hours but water was provided freely, and then used in the following experiment.
Each of the test compounds suspended in 0.5% CMC was orally administered to the rats, and 30 minutes later, indomethacin was orally administered in a dose of 20 mg/kg. Six hours later, the animals were sacrificed. The abdomen was cut open, and the stomach was removed. 1% Evan's blue was injected in an amount of 0.5 ml/rat into the rats through the tail vein under ether anesthesia 10 minutes before sacrificing.
12 ml of a 1% formalin was injected into the stomach and the stomach was further dipped in 1% formalin for about 10 minutes for the fixation. The stomach was cut open on the side of the greater curvature, and spread on a glass plate. The lengths of ulcers generated in the glandular stomach were measured by using a solid microscope. The sum of the lengths of the ulcers for each animal was used as the ulcer index. The ulcer inhibiting ratio of the test compound was calculated in accordance with the following equation. [formula]
The control group was given 0.5% CMC and indomethacin alone.

In the next test the test system is Shay ulcer. The experiment in a line: Inhibitory activity on Shay ulcer (pylorus ligation). In kind it is in vivo, SD-strain male rats. The conditions noted are these: 300 mg/kg i.p. As for the experimental part: Seven week-old SD-strain male rats (body weight 200 to 220 g) were fasted for 24 hours but water was provided freely, and then used in the experiment.
The rats were anesthetized with ether. The abdomen was cut open along the median line to expose the pylorus. Then, the pylorus was ligated. After the ligation, each of the test compounds, dissolved in physiological saline, was administered intraperitoneally to the rats. The abdomen was sutured. After confirming that the animals recovered from ether anesthesia, they were kept in a wire cage while being deprived of food and water. Seventeen hours later, the animals were killed by using ether. The abdomen was again cut open, and the stomach was removed. The stomach was cut open, and the area of ulcers generated in the fundus was measured by using a solid microscope, and scored as tabulated below to obtain ulcer indices. […]
(§1) The control group was given physiological saline alone.
For the measurement of the Shay ulcer inhibiting activity, reference may be made to H. Shay, S. A. Komoroe, S. S. Fels, M. Meraze, M. Gruestein, and H. Siplet: Gastroent., 5, 43 (1945).

A further test deals with gastric secretion. The experiment in a line: Inhibitory activity on gastric secretion (pylorus ligation). In kind it is in vivo, male rats. As to conditions: for Amount of gastric juice: 4 hours after pylorus ligation, control 6.8 ± 0.6, in ml (unit assumed); for Acidity: control 109.1 ± 1.7. As for the experimental part: Seven week-old DS-strain male rats (body weight 200 to 220 g) were fasted for 24 hours but water was provided freely, and then used in the following experiment.
The rats were anesthetized with ether. The abdomen was cut open along the median line to expose the pylorus. Then, the pylorus was ligated. After ligation, each of the test compounds dissolved in physiological saline was intraperitoneally administered to the animals. The abdomen was sutured, and after confirming that the animals recovered from ether anesthesia, they were kept in a wire cage while being deprived of food and water. Four hours later, the animals were killed by using ether. The abdomen was again cut open, and the stomach was removed. The gastric juice was collected, and its volume and acidity was measured. The acidity of the gastric juice was determined by titrating with 0.05 N sodium hydroxide using phenolphthalein as an indicator, and calculating the amount of sodium hydroxide required to neutralize the gastric juice which is estimated as the acidity of the gastric juice.
as §1
For the method of studying the inhibitory activity on the gastiic secretion, reference may be made to H. Shay, S. A. Komoroe, S. S. Fels, M. Meraze, M. Gruestein and H. Siplet: Gastroent., 5, 43 (1945), and M. L. Anson: J. Gen, Physiol., 21, 79 (1938).

Test [1] concerns blood flow in the gastric mucosa. In words: Increasing activity on the blood flow in the dog gastric mucosa. In kind it is in vivo, Male Beagle dogs. The conditions noted are these: anesthetized dogs, cross thermocouple method. The protocol:
Male Beagle dogs (10 to 15 kg) were anesthetized by intravenously administering sodium pentobarbital in a dose of 35 mg/kg, and used in the following experiment.
The blood flow in the gastric mucosa was measured by a cross thermocouple method. The abdomen was cut open along the median line to expose the stomach. A wire-type cross thermocouple element was inserted behind the mucosa on the glandular stomach. The blood flow measured by the cross thermocouple element was recorded continuously in a recorder. For the method of measuring the blood flow, reference may be made to a Japanese-language publication "Blood Flow Measurement", page 105, 1974 Igakushoin, edited by Okinaka, Hori and Honda.

The target in a further test is T1, plasmin (Homo sapiens, UniProt P00747).
T1 construct: fibrin clot lysis, native
The experiment in a line: Antiplasmin activity (clot lysis time, fibrinogen/urokinase/thrombin). In kind it is biochemical. As for the experimental part:
Human fibrinogen was dissolved in a phosphate-buffered physiological saline (PBS) at a pH of 7.4 to prepare a 0.2% solution. Urokinase and thrombin were dissolved similarly in PBS to prepare a solution containing 120 units of urokinase and 50 units of thrombin per ml. […] Then, 0.1 ml of the urokinase-thrombin mixed solution was added, and a microchronometer was started. One minute after the starting of the microchronometer, a glass ball having a diameter of 8 mm was put on the coagulated surface, and the incubation was continued. The time which elapsed from the dissolution of the coagulated mass until the glass ball dropped onto the bottom of the test tube was measured. As a control, PBS alone was added.

The test system of another test is thrombin. In words: Antithrombin activity (recalcification time of plasma). As to conditions: 5 × 10^-3 M; rabbit plasma, second series, control 103.3 ± 7.6.

Counter-ions that a name gives are not always drawn.

T1 sequence (P00747 97-810): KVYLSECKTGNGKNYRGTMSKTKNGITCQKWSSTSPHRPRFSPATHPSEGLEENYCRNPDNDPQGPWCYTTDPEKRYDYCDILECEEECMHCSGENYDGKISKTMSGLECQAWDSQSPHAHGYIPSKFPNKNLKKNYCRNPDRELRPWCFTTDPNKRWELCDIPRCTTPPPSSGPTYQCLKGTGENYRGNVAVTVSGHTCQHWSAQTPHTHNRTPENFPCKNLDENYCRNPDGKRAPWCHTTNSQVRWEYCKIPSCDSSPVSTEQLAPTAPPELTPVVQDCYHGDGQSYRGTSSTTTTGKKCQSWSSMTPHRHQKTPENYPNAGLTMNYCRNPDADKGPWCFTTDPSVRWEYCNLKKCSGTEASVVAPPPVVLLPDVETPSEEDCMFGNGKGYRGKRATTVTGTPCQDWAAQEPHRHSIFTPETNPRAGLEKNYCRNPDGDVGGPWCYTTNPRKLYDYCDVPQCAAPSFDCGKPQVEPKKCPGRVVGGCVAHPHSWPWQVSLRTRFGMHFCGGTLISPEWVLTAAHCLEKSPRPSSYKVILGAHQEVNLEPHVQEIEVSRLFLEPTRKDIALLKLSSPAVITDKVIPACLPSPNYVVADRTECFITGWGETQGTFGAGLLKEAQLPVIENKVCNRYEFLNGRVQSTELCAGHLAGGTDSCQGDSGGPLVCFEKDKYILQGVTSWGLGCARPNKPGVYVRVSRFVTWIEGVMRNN

Consider `NC[C@H]1CC[C@H](C(=O)c2ccc(CCC(=O)O)cc2)CC1` [3-[p-trans-4-aminomethylcyclohexylcarbonyl)phenyl]-propionic acid hydrochloride], for which the Ulcer inhibiting ratio with serotonin ulcer (30 mg/kg oral) stood at 34.0%; in the test with serotonin ulcer (100 mg/kg oral), 76.7%; with indomethacin ulcer (200 mg/kg oral) it was 62.2%. In addition, the Inhibition ratio in the test with Shay ulcer (Shay ulcer, rats) worked out at 43.5%. The Ratio of perforation in the test on Shay ulcer (Shay ulcer, rats, control 80) is listed as 20%. Besides, the Ulcer index with Shay ulcer (score 0-5 by ulcer area, 17 hours after pylorus ligation, control 4.6 ± 0.4) is 2.6 ± 0.8. Moreover, the results for the “Inhibition ratio (acidity)” value in the test on gastric secretion (50 mg/kg i.p.), in the test with gastric secretion (100 mg/kg i.p.) and in the test with gastric secretion (200 mg/kg i.p.) were 17.5%, 31.8% and 70.1%, respectively. Besides, the “Inhibition ratio (amount of gastric juice)” value stood at 41.7% in the test on gastric secretion (50 mg/kg i.p.), 54.4% with gastric secretion (100 mg/kg i.p.) and 89.4% with gastric secretion (200 mg/kg i.p.). Besides, the results for the “Amount of gastric juice” value in the test with gastric secretion (50 mg/kg i.p.), in the test with gastric secretion (100 mg/kg i.p.) and in the test with gastric secretion (200 mg/kg i.p.) were 4.8 ± 0.8, 3.1 ± 0.7 and 0.7 ± 0.1, respectively. In addition, the figures for the Acidity with gastric secretion (50 mg/kg i.p.), with gastric secretion (100 mg/kg i.p.) and in the test on gastric secretion (200 mg/kg i.p.) were 90.0 ± 4.5 μeq./ml, 74.1 ± 6.1 μeq./ml and 32.6 ± 2.6 μeq./ml, respectively. Moreover, the “Increase in the gastric mucosal blood flow” value in test [1] (2 mg/kg i.v.) was “weak increase”; in test [1] (5 mg/kg i.v.), “remarkable”. In addition, the Clot lysis time at plasmin (10^-3 M, first series, control 391.7 ± 16.1) amounted to 980.0 s; on plasmin (10^-4 M, first series, control 391.7 ± 16.1), 561.2 s; on plasmin (10^-5 M, first series, control 391.7 ± 16.1) it was 413.9 s.
`CCOC(=O)CCc1ccc(C(=O)CCCCCN)cc1` [(121) hydrochloride, ethyl 3-[p-ε-aminocaproyl)phenyl]propionate hydrochloride]: the Ulcer inhibiting ratio in the test on serotonin ulcer (100 mg/kg oral) amounted to 72.3%; in the test with indomethacin ulcer (400 mg/kg oral) it was 89.7%. Besides, the “Inhibition ratio (acidity)” value is reported as 48.9% in the test on gastric secretion (50 mg/kg i.p.), 58.9% in the test on gastric secretion (100 mg/kg i.p.) and 74.4% in the test on gastric secretion (200 mg/kg i.p.). In addition, the figures for the “Inhibition ratio (amount of gastric juice)” value in the test on gastric secretion (50 mg/kg i.p.), with gastric secretion (100 mg/kg i.p.) and with gastric secretion (200 mg/kg i.p.) were 77.9%, 94.1% and 94.1%, respectively. Besides, the “Amount of gastric juice” value in the test on gastric secretion (50 mg/kg i.p.) amounted to 1.5 ± 0.4; in the test on gastric secretion (100 mg/kg i.p.) it was 0.4 ± 0.1; in the test with gastric secretion (200 mg/kg i.p.), 0.4 ± 0.1. Further, the Acidity in the test with gastric secretion (50 mg/kg i.p.) is 55.7 ± 9.3 μeq./ml; with gastric secretion (100 mg/kg i.p.), 44.8 ± 5.0 μeq./ml; in the test with gastric secretion (200 mg/kg i.p.), 27.9 ± 4.4 μeq./ml. Also, the Clot lysis time on plasmin (10^-3 M, second series, control 556.7 ± 12.6) was 670.0 s; at plasmin (10^-4 M, second series, control 556.7 ± 12.6) it was 543.3 s. The Recalcification time in the test on thrombin worked out at 96.0 s.

(Values after patent US4402975A, “Aminocarboxylic acids, amino alcohols, or the derivatives thereof, processes for production thereof, and pharmaceutical uses thereof” (Teijin Limited, priority 1980, dated 1983).)
